Measured values: publication PMC4849758, “Rational Structure-Based Rescaffolding Approach to De Novo Design of Interleukin 10 (IL-10) Receptor-1 Mimetics” (PLoS ONE, 2016)
Bridge positions count the residues as written; N and C are the ends. Square brackets hold non-standard residues; d marks the D form. Peptide text beside a SMILES is read from it. * marks the point of attachment. Trp(5-OH) = N[C@@H](Cc1c[nH]c2ccc(O)cc12)C(=O)O; Butanoyl(4-guanidino) = N=C(N)NCCCC(=O)*

How the values were obtained:
mIL-10C149Y [1] = biological target: T1, mIL-10C149Y (Mus musculus, UniProt P18893, C167Y); experiment: Thermal denaturation by circular dichroism (CD), Kd estimate from two-state unfolding model; type: binding, murine; conditions: 4.5 μM mimetic; for increase of native protein structure in presence of mimetic, percentage of the total change in the CD signal: at 332 K, average CD signal 215-230 nm, 2 μM mIL-10C149Y; for Kd: calculated from thermal denaturation CD data, 2 μM mIL-10C149Y dimer, two-state unfolding model, lower affinity limit reported
T1 construct: His8 tag (LEHHHHHHHH) from pET41b(+) (C); made in house
T1 sequence (P18893 19-178 C167Y): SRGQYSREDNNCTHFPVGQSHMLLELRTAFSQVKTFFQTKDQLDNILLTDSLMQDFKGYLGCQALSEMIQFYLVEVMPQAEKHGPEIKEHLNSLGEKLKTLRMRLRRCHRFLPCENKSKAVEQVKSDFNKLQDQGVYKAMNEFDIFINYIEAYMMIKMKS
Method: M1 was chemically synthesized, and its experimental binding affinity towards IL-10 was assessed by thermal stability measurements using circular dichroism (CD) and fluorescence (see materials and methods). For these studies, we used the readily available murine IL-10 mutant mIL-10C149Y in which Cys149 was replaced by the corresponding Tyr residue of the human protein, as it was previously shown to enhance protein refolding yield. Furthermore, this tyrosine would enhance the sensitivity of tryptophan fluorescence measurements (i.e. as stated above, it can act as energy donor for the tryptophan residue introduced as label in the mimetics).
Complex formation between M1 and mIL-10C149Y was determined by thermal denaturation using CD and the well-known negative ellipticity of IL-10 between 200 to 300 nm. […] The obtained curves shift to higher temperatures in the presence of M1. The shift is due to a lower degree of unfolded protein at any temperature in the presence of mimetic M1 as compared to the denaturation of mIL-10C149Y alone. […] At 332 K, the presence of M1 increased the native protein structure by 8%.
CD spectra were recorded with a J-815 instrument (Jasco, Gross-Umstadt, Germany) from 195 to 300 nm in 1-cm cuvettes at concentrations of 2 μM of mIL-10C149Y (dimer) and 4.5 μM of mimetics M1-M4. Ellipticity θ was recorded in millidegrees. Samples were heated from 298 to 364 K at a rate of 2 K/min under constant stirring to determine stabilization of IL-10/mimetic complexes. Estimates of binding affinities were derived with the assumption of a two state unfolding of mIL-10C149Y. The mimetics were assumed to stabilize exclusively the folded state. These simplifications allow applying equilibrium thermodynamics, such that the fraction Sn of the native state of mIL-10C149Y can be approximated: Sn = (1+ [M] Kd^-1 +Ku)^-1. Kd is the estimated dissociation constant of the mimetic, [M] its concentration. Ku is the temperature-dependent unfolding equilibrium constant (Ku = [denatured]/[native]) as measured by the unfolding curve of mIL-10C149Y in the absence of mimetics. […] In this case, the measured CD curves would be actually compatible with much higher mimetic affinities, because a local stabilization of the mimetic binding epitope on mIL-10C149Y is not counted as binding in the applied two state model but it is very likely to occur. For consistency, we have not explored the higher affinity limit that would still be compatible with the data. Instead, we report only the lower affinity range that complies with the assumptions, in order to prevent bias for overestimated mimetic affinities. […] Absolute thermodynamic parameters could only be obtained by isothermal titration calorimetry with the most promising mimetics. This of course required the initial confirmation of the binding of the precursor molecules which was accomplished by CD and Fluorescence Spectroscopy. Fluorescence emission at 360 nm was monitored simultaneously with the CD scan (the measuring beam served as the excitation light) using a second monochromator and photomultiplier in 90° geometry with respect to the CD absorption path. Thereby, temperature-dependent excitation spectra of the tryptophan at position two in the synthetic IL-10R1 mimetics were additionally obtained with the CD data acquisition.

mIL-10C149Y [2] = biological target: T1, mIL-10C149Y; experiment: Isothermal titration calorimetry (ITC); type: binding, murine; conditions: for TΔS, entropic component of binding / ΔH, enthalpic term of binding: ITC; for TΔS, entropic component of binding / ΔH, enthalpic term of binding / Kd: 298 K; for Kd: inferred from ITC thermodynamic data, single site model, variable stoichiometry; for fold increase of binding affinity with respect to M2-M4 / fold increase of binding with respect to M1: ratio of Kd values; for fold increase of binding with respect to M1: M1 Kd from thermal denaturation
Text: Further ligand optimization was accomplished by the introduction of an additional N-terminal H-bond acceptor such as Gln or Glu (M5, M6), which would allow interactions with the cationic side chains of IL-10R27 and IL-10K34 (helix A) or with IL-10N148 (helix F’) (Fig 2A). Favourable energies obtained for the interaction of IL-10 with an aliphatic carboxylate chemical probe supported this rationale. Furthermore, residues IL-10L46 (loop AB) and IL-10I145 (helix F’) would additionally contribute with van der Waals interactions with the aliphatic moieties of the side chains of the residues introduced at the N-teminus. […] Furthermore, these measurements supported the expected stoichiometry 2:1 mimetic:dimer-protein binding ratio as previously observed for the IL-10R1/IL-10 complex.
The final constant heat signals were subtracted to correct for the solution enthalpy of the respective IL-10R1 mimetics. The resulting integrated heat curve was analyzed with the associated software Origin 9 [74] allowing a variable stoichiometry but restriction to a single Kd value (identical binding sites of the dimeric protein).

CC(=O)N[C@H]1CCCCNC(=O)C[C@@H](C(=O)N[C@H]2CCCCNC(=O)C[C@@H](C(=O)N[C@@H](CCCNC(=N)N)C(=O)N[C@@H](C)C(N)=O)NC(=O)[C@H](C(C)C)NC(=O)[C@H](CCCCN)NC(=O)[C@H](CCCNC(=N)N)NC2=O)NC(=O)[C@H](Cc2ccc(O)cc2)NC(=O)[C@H](CCCNC(=N)N)NC(=O)[C@H](Cc2c[nH]c3ccccc23)NC1=O [M1] (Ac-KWRYDKRKVDRA-NH2; lactam 1-5, 6-10)
increase of native protein structure in presence of mimetic, percentage of the total change in the CD signal (mIL-10C149Y [1]): 8%
Kd (mIL-10C149Y [1]): > 30 µM

CC(C)[C@@H]1NC(=O)[C@H](CCCCN)NC(=O)[C@H](CCCNC(=N)N)NC(=O)[C@@H](NC(=O)[C@@H]2CC(=O)NCCCC[C@H](NC(=O)CCCNC(=N)N)C(=O)N[C@@H](Cc3c[nH]c4ccccc34)C(=O)N[C@@H](CCCNC(=N)N)C(=O)N[C@@H](Cc3ccc(O)cc3)C(=O)N2)CCCCNC(=O)C[C@@H](C(=O)N[C@@H](CCCNC(=N)N)C(=O)N[C@@H](C)C(N)=O)NC1=O [M2] ({Butanoyl(4-guanidino)}-KWRYDKRKVDRA-NH2; lactam 1-5, 6-10)
increase of native protein structure in presence of mimetic, percentage of the total change in the CD signal (mIL-10C149Y [1]): 16%
Kd (mIL-10C149Y [1]): 5 µM

CC(C)[C@@H]1NC(=O)[C@H](CCCCN)NC(=O)[C@H](CCCNC(=N)N)NC(=O)[C@@H](NC(=O)[C@@H]2CC(=O)NCCCC[C@H](NC(=O)CCCNC(=N)N)C(=O)N[C@@H](Cc3c[nH]c4ccc(O)cc34)C(=O)N[C@@H](CCCNC(=N)N)C(=O)N[C@@H](Cc3ccc(O)cc3)C(=O)N2)CCCCNC(=O)C[C@@H](C(=O)N[C@@H](CCCNC(=N)N)C(=O)N[C@@H](C)C(N)=O)NC1=O [M3] ({Butanoyl(4-guanidino)}-K[Trp(5-OH)]RYDKRKVDRA-NH2; lactam 1-5, 6-10)
increase of native protein structure in presence of mimetic, percentage of the total change in the CD signal (mIL-10C149Y [1]): 12%
Kd (mIL-10C149Y [1]): 6.7 µM

CC(=O)N[C@@H](CCCNC(=N)N)C(=O)N[C@H]1CCCCNC(=O)C[C@@H](C(=O)N[C@H]2CCCCNC(=O)C[C@@H](C(=O)N[C@@H](CCCNC(=N)N)C(=O)N[C@@H](C)C(N)=O)NC(=O)[C@H](C(C)C)NC(=O)[C@H](CCCCN)NC(=O)[C@H](CCCNC(=N)N)NC2=O)NC(=O)[C@H](Cc2ccc(O)cc2)NC(=O)[C@H](CCCNC(=N)N)NC(=O)[C@H](Cc2c[nH]c3ccccc23)NC1=O [M4] (Ac-RKWRYDKRKVDRA-NH2; lactam 2-6, 7-11)
increase of native protein structure in presence of mimetic, percentage of the total change in the CD signal (mIL-10C149Y [1]): 11%
Kd (mIL-10C149Y [1]): 8.4 µM

CC(=O)N[C@@H](CCC(=O)O)C(=O)N[C@@H](CCCCN)C(=O)N[C@H]1CCCCNC(=O)C[C@@H](C(=O)N[C@H]2CCCCNC(=O)C[C@@H](C(=O)N[C@@H](CCCNC(=N)N)C(=O)N[C@@H](C)C(N)=O)NC(=O)[C@H](C(C)C)NC(=O)[C@H](CCCCN)NC(=O)[C@H](CCCNC(=N)N)NC2=O)NC(=O)[C@H](Cc2ccc(O)cc2)NC(=O)[C@H](CCCNC(=N)N)NC(=O)[C@H](Cc2c[nH]c3ccccc23)NC1=O [M5] (Ac-EKKWRYDKRKVDRA-NH2; lactam 3-7, 8-12)
TΔS, entropic component of binding (mIL-10C149Y [2]): 9.5 kcal/mol
ΔH, enthalpic term of binding (mIL-10C149Y [2]): -0.5 kcal/mol
Kd (mIL-10C149Y [2]): 0.07 ± 0.02 µM
fold increase of binding affinity with respect to M2-M4 (mIL-10C149Y [2]): more than 70 fold
fold increase of binding with respect to M1 (mIL-10C149Y [2]): more than 400 fold

CC(=O)N[C@@H](CCC(=O)O)C(=O)N[C@@H](CCCNC(=N)N)C(=O)N[C@H]1CCCCNC(=O)C[C@@H](C(=O)N[C@H]2CCCCNC(=O)C[C@@H](C(=O)N[C@@H](CCCNC(=N)N)C(=O)N[C@@H](C)C(N)=O)NC(=O)[C@H](C(C)C)NC(=O)[C@H](CCCCN)NC(=O)[C@H](CCCNC(=N)N)NC2=O)NC(=O)[C@H](Cc2ccc(O)cc2)NC(=O)[C@H](CCCNC(=N)N)NC(=O)[C@H](Cc2c[nH]c3ccccc23)NC1=O [M6] (Ac-ERKWRYDKRKVDRA-NH2; lactam 3-7, 8-12)
TΔS, entropic component of binding (mIL-10C149Y [2]): 9.5 kcal/mol
ΔH, enthalpic term of binding (mIL-10C149Y [2]): -0.5 kcal/mol
Kd (mIL-10C149Y [2]): 0.04 ± 0.02 µM
fold increase of binding affinity with respect to M2-M4 (mIL-10C149Y [2]): more than 70 fold
fold increase of binding with respect to M1 (mIL-10C149Y [2]): more than 400 fold
